Experiment [1] addresses Acetylcholinesterase (Homo sapiens) (UniProt P22303). The experiment is described as follows: Ratio of compound activity to curcumin activity for inhibition of acetylcholinesterase (unknown origin)-induced amyloid beta(1 to 42) aggregation.
Experiment [2] addresses Acetylcholinesterase (Electrophorus electricus) (UniProt O42275). Put plainly: Inhibition of electric eel acetylcholinesterase using acetylthiocholine as substrate up to 100 uM incubated for 15 mins followed by substrate addition measured for 2 mins by Ellman's method relative to control.
Experiment [3] can be described thus: cells. To be noted: Homo sapiens, SH-SY5Y, 48 h.
Description: Cytotoxicity against human SH-SY5Y cells assessed as cell viability after 48 hrs by MTT assay
Experiment [4] concerns the target Acetylcholinesterase (Homo sapiens) (UniProt P22303). The experiment is described as follows: Ratio of compound activity to tacrine activity for inhibition of acetylcholinesterase (unknown origin)-induced amyloid beta(1 to 42) aggregation.
Experiment [5] concerns the target Acetylcholinesterase (Electrophorus electricus) (UniProt O42275). The experiment is described as follows: Mixed-type inhibition of electric eel AChE using acetylthiocholine as substrate at 3.125 to 50 nM after 15 mins by Lineweaver-Burk plot analysis.
The target in experiment [6] is Acetylcholinesterase (Electrophorus electricus, UniProt O42275).
Description: Inhibition of electric eel acetylcholinesterase using acetylthiocholine as substrate incubated for 15 mins followed by substrate addition measured for 2 mins by Ellman's method
For experiment [7], the target named is Cholinesterase (Equus caballus, UniProt P81908).
Description: Inhibition of horse serum butyrylcholinesterase using butylthiocholine as substrate incubated for 15 mins followed by substrate addition measured for 2 mins by Ellman's method
Experiment [8] concerns the target Acetylcholinesterase (Electrophorus electricus) (UniProt O42275). Put plainly: Ratio of tacrine IC50 to compound IC50 for electric eel acetylcholinesterase.
Experiment [9] shares this target. The experiment is described as follows: Mixed-type inhibition of electric eel AChE using acetylthiocholine as substrate at 0.125 to 2 nM after 15 mins by Lineweaver-Burk plot analysis.
Experiment [10] is described as follows: Metal chelating activity of the compound assessed as formation of iron complex at 20 uM after 30 mins by UV-vis spectrophotometric analysis. The format is functional.
Experiment [11] in a line: Metal chelating activity of the compound assessed as formation of zinc complex at 20 uM after 30 mins by UV-vis spectrophotometric analysis. The format is functional.
Experiment [12] can be described thus: Metal chelating activity of the compound assessed as formation of copper complex at 20 uM by molar ratio method. The format is functional.
Experiment [13] in a line: Metal chelating activity of the compound assessed as formation of calcium complex at 20 uM after 30 mins by UV-vis spectrophotometric analysis. The format is functional.
Experiment [14] is described as follows: Metal chelating activity of the compound assessed as formation of sodium complex at 20 uM after 30 mins by UV-vis spectrophotometric analysis. The format is functional.
Experiment [15] can be described thus: Metal chelating activity of the compound assessed as formation of magnesium complex at 20 uM after 30 mins by UV-vis spectrophotometric analysis. The format is functional.
Experiment [16] in a line: Metal chelating activity of the compound assessed as formation of potassium complex at 20 uM after 30 mins by UV-vis spectrophotometric analysis. The format is functional.
Experiment [17] can be described thus: Metal chelating activity of the compound assessed as formation of copper complex at 20 uM after 30 mins by UV-vis spectrophotometric analysis. The format is functional.

Molecules are shown by their SMILES. The source made the active and inactive calls. The calls are words filed in the database; no cut-off is given here. Some results are limits rather than exact numbers.

Broadly, the inhibition is how much of the control response was suppressed. As usually defined, the IC50 is the point on the concentration scale where inhibition reaches its midpoint. A high value points to weaker potency in that assay.

Acetylcholinesterase (Electrophorus electricus), sequence (O42275 24-633 limits assumed): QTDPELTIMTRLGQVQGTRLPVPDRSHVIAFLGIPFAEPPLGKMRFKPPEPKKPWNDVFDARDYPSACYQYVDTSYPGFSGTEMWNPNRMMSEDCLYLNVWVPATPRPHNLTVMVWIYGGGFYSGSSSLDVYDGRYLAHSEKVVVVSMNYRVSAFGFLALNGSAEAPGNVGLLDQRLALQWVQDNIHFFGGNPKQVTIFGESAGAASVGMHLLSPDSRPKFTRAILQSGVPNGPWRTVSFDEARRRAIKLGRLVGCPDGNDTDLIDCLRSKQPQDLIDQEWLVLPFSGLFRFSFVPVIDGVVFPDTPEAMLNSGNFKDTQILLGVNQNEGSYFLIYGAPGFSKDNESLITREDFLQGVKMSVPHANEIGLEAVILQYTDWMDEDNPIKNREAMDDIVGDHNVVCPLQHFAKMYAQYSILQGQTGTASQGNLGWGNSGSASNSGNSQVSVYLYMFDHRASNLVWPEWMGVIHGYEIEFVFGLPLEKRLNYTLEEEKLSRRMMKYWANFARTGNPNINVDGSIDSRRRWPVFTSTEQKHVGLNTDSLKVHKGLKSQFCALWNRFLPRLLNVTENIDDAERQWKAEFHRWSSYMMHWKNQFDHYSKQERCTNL
Cholinesterase, sequence (P81908 whole entry): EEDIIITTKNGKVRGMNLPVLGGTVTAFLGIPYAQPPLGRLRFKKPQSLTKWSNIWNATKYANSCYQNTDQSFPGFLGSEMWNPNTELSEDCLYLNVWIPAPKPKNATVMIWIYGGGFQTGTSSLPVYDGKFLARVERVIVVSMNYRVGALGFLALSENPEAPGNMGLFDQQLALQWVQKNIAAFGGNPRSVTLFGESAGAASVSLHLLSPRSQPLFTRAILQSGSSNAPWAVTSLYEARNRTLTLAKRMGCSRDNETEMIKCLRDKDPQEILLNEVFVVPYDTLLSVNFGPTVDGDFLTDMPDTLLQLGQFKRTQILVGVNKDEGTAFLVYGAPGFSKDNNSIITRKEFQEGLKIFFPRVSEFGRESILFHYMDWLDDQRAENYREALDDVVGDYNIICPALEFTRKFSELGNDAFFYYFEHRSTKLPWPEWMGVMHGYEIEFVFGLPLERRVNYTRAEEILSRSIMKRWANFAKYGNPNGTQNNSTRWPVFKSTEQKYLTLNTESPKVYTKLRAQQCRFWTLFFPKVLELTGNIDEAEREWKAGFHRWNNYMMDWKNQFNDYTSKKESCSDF
Acetylcholinesterase, sequence (O42275 whole entry): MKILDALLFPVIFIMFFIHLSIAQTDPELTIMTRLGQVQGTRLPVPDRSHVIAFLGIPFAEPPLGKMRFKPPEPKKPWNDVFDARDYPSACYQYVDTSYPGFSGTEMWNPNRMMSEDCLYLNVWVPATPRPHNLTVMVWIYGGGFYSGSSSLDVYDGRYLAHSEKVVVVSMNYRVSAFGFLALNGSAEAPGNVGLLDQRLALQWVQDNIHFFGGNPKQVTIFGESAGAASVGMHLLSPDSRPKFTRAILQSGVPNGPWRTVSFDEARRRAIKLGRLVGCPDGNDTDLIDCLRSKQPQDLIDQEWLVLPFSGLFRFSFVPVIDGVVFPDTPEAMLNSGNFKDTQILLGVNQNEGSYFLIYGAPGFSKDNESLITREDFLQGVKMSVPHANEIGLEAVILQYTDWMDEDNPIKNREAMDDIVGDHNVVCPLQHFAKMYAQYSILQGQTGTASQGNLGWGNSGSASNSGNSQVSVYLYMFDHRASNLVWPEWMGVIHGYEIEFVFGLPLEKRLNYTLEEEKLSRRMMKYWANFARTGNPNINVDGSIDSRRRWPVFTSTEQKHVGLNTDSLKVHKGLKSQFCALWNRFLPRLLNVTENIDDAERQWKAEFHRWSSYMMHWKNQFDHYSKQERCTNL
Acetylcholinesterase (Homo sapiens), sequence (P22303 whole entry): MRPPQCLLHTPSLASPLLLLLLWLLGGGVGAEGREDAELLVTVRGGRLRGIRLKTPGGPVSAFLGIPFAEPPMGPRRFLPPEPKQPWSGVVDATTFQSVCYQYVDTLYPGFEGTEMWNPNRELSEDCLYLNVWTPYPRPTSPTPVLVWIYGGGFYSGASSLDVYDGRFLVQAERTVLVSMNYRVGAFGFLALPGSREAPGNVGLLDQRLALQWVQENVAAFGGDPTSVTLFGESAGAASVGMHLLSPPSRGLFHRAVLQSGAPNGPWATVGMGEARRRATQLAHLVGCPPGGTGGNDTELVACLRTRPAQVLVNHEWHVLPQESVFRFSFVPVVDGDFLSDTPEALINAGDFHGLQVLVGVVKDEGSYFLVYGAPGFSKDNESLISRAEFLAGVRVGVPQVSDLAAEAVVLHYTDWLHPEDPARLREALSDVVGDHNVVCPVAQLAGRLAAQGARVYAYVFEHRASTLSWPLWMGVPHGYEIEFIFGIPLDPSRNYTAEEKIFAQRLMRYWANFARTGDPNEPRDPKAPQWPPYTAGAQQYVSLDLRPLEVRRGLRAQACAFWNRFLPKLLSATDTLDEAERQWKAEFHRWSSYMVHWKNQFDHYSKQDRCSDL

On to `O=C(CCN1CCCC1)Nc1ccc2nc3c4[nH]c5ccccc5c4ccn3c(=O)c2c1`, for which the Ratio in experiment [1] is 2.2; in experiment [4], 15.3. This molecule also returned an inhibition in [2] of 20%. In addition, the IC50 in experiment [3] worked out at 21.2 µM; in experiment [6], 0.0139 µM; in experiment [7] it was 14.9 µM. The inhibition entry in experiment [5] is “Active”.
As for `O=C(C[n+]1ccccc1)Nc1ccc2nc3c4[nH]c5ccccc5c4ccn3c(=O)c2c1`, the Ratio came to 2.2 in experiment [1] and 15.3 in experiment [4]. For the same molecule, the inhibition in experiment [2] worked out at 20%. Besides, the results for the IC50 in experiment [3], in experiment [6] and in [7] were over 100 µM, 0.0008 µM and 2.45 µM, respectively. For the same molecule, the Ratio IC50 in [8] came out at 160.
For `O=C(C[n+]1cccc(F)c1)Nc1ccc2nc3c4[nH]c5ccccc5c4ccn3c(=O)c2c1`, in experiment [9], the inhibition result was “Active”. In addition, the Ratio amounted to 2.2 in experiment [1] and 15.3 in experiment [4]. In experiment [2], this molecule yielded an inhibition of 20%. Moreover, the outcome in [10], in experiment [11], in [12] and in experiment [17] was Active. Also, the results for the IC50 in experiment [3], in experiment [6] and in [7] were over 100 µM, 0.0006 µM and 1.86 µM, respectively. The result in experiment [13], in experiment [14], in experiment [15] and in experiment [16] was inactive. Further, the Ratio IC50 in experiment [8] came out at 160.
As to `CN(C)CCC(=O)Nc1ccc2nc3c4[nH]c5ccccc5c4ccn3c(=O)c2c1`, the Ratio in experiment [1] is 2.2; in [4] it was 15.3. Besides, the inhibition in [2] came to 20%. The concentration for half-maximal inhibition (IC50) turned out to be 5.5 µM in experiment [3], 0.0561 µM in experiment [6] and 21.4 µM in [7].
`C[N+](C)(C)CCC(=O)Nc1ccc2nc3c4[nH]c5ccccc5c4ccn3c(=O)c2c1`: the Ratio in experiment [1] amounted to 2.2; in experiment [4], 15.3. In experiment [2], this molecule registered an inhibition of 20%. In addition, the IC50 in [3] worked out at 29.2 µM; in experiment [6], 0.197 µM; in experiment [7], 37.2 µM.
`O=C(CN1CCOCC1)Nc1ccc2nc3c4[nH]c5ccccc5c4ccn3c(=O)c2c1`: the Ratio in experiment [1] was determined as 2.2; in experiment [4] it was 15.3. Further, the inhibition in [2] was found to be 20%. The results for the IC50 in [3], in experiment [6] and in experiment [7] were 9.9 µM, 0.0878 µM and 28.5 µM, respectively.

For the origin of these results see ChEMBL document CHEMBL2375339, “Synthesis and evaluation of 7,8-dehydrorutaecarpine derivatives as potential multifunctional agents for the treatment of Alzheimer's disease” (Eur J Med Chem, 2013).
